# Tested on: mPTP in 4T1 cells
# Test: Mitochondrial permeability transition pore opening assay (Calcein AM)
# Type: cell-based, Mouse
# Conditions: 6.25 μM, 24 h
# Description: On the other hand, rhein could also disturb mitochondria, the camp of OXPHOS, to further prevent cancer cells from obtaining ATP by inducing pathological opening of mPTP [30]. We first detected mPTP on 4T1 cancer cells treated with indicated drugs according to the mPTP assay kit. The green fluorescence of Calcein AM in mitochondria would vanish when the quencher entered mitochondria through the opened mPTP channel. […] The sustained opening of mPTP along with the loss of Δψm. Thus, we further examined the Δψm of 4T1 cancer cells with JC-1 fluorescence dyes and tetramethylrhodamine, ethyl ester (TMRE) probe. The JC-1 dyes underwent a transition from aggregated red fluorescence to monomeric green fluorescence with mitochondrial depolarization in cells, and the increase of green/red fluorescence intensity ratio of JC-1 dyes indicated mitochondrial depolarization.
# The opening status of the mPTP in 4T1 cells were tested with fluorescent probe Calcein AM. Briefly, 4T1 cells were seeded into 6-wells plates at a density of 10 × 10^4 cells per well and treated with various drugs at 6.25 μM for 24 h. After being washed twice with PBS, the cells were stained with Calcein AM staining solution (1 ×) and CoCl2 fluorescence quenching solution (1 ×) for 45 min at 37 °C in the dark. Next, they were further cultured with fresh medium at 37 °C for another 30 min in the dark. […]
compound,measurement,value
O=C(OCCOC(=O)C(Cl)Cl)c1cc(O)c2c(c1)C(=O)c1cccc(O)c1C2=O [Rhein-DCA],mPTP opening (Calcein AM green fluorescence),faintest green fluorescence
